9 compounds from DBAASP can be followed below.

Among the test systems are Staphylococcus capitis 1; Bacillus megaterium Bm11; Botrytis cinerea; Candida parapsilosis; Escherichia coli UB1005; Escherichia coli K-12; Escherichia coli JM109; Staphylococcus aureus; Streptococcus mutans.
What all share (test): ≥ marks a high value that may be exact or a test limit, other limits are often not marked, values filed in µg/mL are converted to µM
Assay [1] deals with Staphylococcus aureus Cowan 1.
The subject of assay [2] is Yersinia pseudotuberculosis YPIII.
The test system of assay [3] is Escherichia coli ATCC 25922.
In assay [4] the test system is Candida albicans ATCC 10231.
Assay [5] concerns Staphylococcus aureus ATCC 12600.
Assay [6] has as its system Escherichia coli ATCC 11775.
The test system of assay [7] is Pseudomonas aeruginosa PAO1.
Assay [8] deals with Pseudomonas aeruginosa 919.
The test system of assay [9] is Pseudomonas aeruginosa 253.
Assay [10] concerns Pseudomonas aeruginosa 910.
Assay [11] has as its system Salmonella typhimurium KCTC 1926.
In assay [12] the test system is Bacillus subtilis CMCC 63501.
The test system of assay [13] is Escherichia coli DH5alpha.
Assay [14] relates to Salmonella enterica subsp. enterica serovar Typhimurium ATCC 14028.
Assay [15] concerns Enterococcus faecalis ATCC 29212.
The test system of assay [16] is Escherichia coli KCTC 1682.
Assay [17] concerns Staphylococcus aureus ATCC 29213.
Assay [18] has as its system Salmonella typhimurium ATCC 7731.
Assay [19] concerns Staphylococcus epidermidis ATCC 12228.
Assay [20] has as its system Staphylococcus aureus KCTC 1621.
Assay [21] has as its system Staphylococcus epidermidis KCTC 1917.
The test system of assay [22] is Bacillus subtilis KCTC 3068.
Assay [23] relates to Pseudomonas aeruginosa KCTC 1637.
Assay [24] concerns Pseudomonas aeruginosa ATCC 27853.
Assay [25] relates to Staphylococcus aureus ATCC 6538P.
Assay [26] has as its system Lacticaseibacillus casei ATCC 4646.
In assay [27] the test system is Veillonella atypica PK1910.
For assay [28], the system named is Streptococcus sanguinis NY101.
Assay [29] concerns Streptococcus mitis ATCC 903.
Assay [30] relates to Streptococcus gordonii Challis DL1.

Values after ≈ are worked out from the molar mass of the structure shown.

The term MIC denotes the smallest concentration in the dilution series that meets the test's criterion for growth inhibition. Low values mean greater potency, high ones weaker potency. On to `CC[C@H](C)[C@H](NC(=O)CNC(=O)[C@H](CO)NC(=O)[C@H](CC(C)C)NC(=O)[C@@H](NC(=O)[C@H](CCCN=C(N)N)NC(=O)CNC(=O)[C@@H](NC(=O)[C@H](CC(C)C)NC(=O)[C@@H]1CCCN1C(=O)[C@H](C)NC(=O)[C@@H](N)Cc1ccccc1)[C@@H](C)CC)C(C)C)C(=O)N[C@@H](CC(C)C)C(N)=O` [FAPLIGRVLSGIL], for which the MIC against Staphylococcus capitis 1 is 20 µM (≈ 27.1 µg/mL); against Bacillus megaterium Bm11 it was 5 µM (≈ 6.77 µg/mL); in assay [1], 20 µM (≈ 27.1 µg/mL); in assay [2], no less than 40 µM; in [3] it was greater than 40 µM; in assay [4] it was 10 µM (≈ 13.5 µg/mL).

`CC[C@H](C)[C@H](NC(=O)CNC(=O)[C@H](CO)NC(=O)[C@H](CC(C)C)NC(=O)[C@H](CC(C)C)NC(=O)CNC(=O)[C@@H](NC(=O)[C@@H](NC(=O)[C@@H]1CCCN1C(=O)CNC(=O)[C@@H](N)Cc1ccccc1)C(C)C)[C@@H](C)CC)C(=O)N[C@@H](CC(C)C)C(=O)N[C@@H](CCCCN)C(=O)N[C@@H](CO)C(=O)N[C@@H](CC(C)C)C(=O)N[C@@H](CC(C)C)C(=O)O` [FGPVIGLLSGILKSLL]: the minimal inhibitory concentration (MIC) was 5 µM (≈ 8.14 µg/mL) with Botrytis cinerea, no less than 50 µM in assay [5], no less than 200 µM in assay [6] and greater than 200 µM in assay [4].

On to `CC[C@H](C)[C@H](NC(=O)[C@@H](N)Cc1ccccc1)C(=O)N[C@@H](CCCCN)C(=O)N[C@@H](Cc1c[nH]c2ccccc12)C(=O)N[C@@H](CCCCN)C(=O)N[C@@H](Cc1ccccc1)C(=O)N[C@@H](CCCN=C(N)N)C(=O)N1CCC[C@H]1C(=O)N[C@@H](Cc1c[nH]c2ccccc12)C(=O)N[C@@H](CCCCN)C(=O)N[C@@H](CCCCN)C(=O)N[C@@H](CCCN=C(N)N)C(=O)N[C@H](C(N)=O)[C@@H](C)O` [FIKWKFRPWKKRT], for which the minimal inhibitory concentration (MIC) in assay [7] is 4 µM (≈ 7.28 µg/mL); in assay [8], 22.6 µM (≈ 41.2 µg/mL); in assay [9] it was 16 µM (≈ 29.1 µg/mL); in [10], 8 µM (≈ 14.6 µg/mL).

For `CC[C@H](C)[C@H](NC(=O)[C@H](CCCN=C(N)N)NC(=O)[C@H](CCC(N)=O)NC(=O)[C@@H](NC(=O)[C@@H](NC(=O)[C@H](CCCN=C(N)N)NC(=O)[C@H](CCCCN)NC(=O)[C@@H](N)Cc1ccccc1)[C@@H](C)CC)C(C)C)C(=O)N[C@@H](CCCCN)C(=O)N[C@@H](CC(=O)O)C(=O)N[C@@H](Cc1ccccc1)C(=O)N[C@@H](CC(C)C)C(=O)N[C@@H](CCCN=C(N)N)C(N)=O` [FKRIVQRIKDFLR], the MIC was 16 µM (≈ 27.5 µg/mL) in assay [11]; 16 µM (≈ 27.5 µg/mL) in assay [12]; no less than 116 µM in assay [13]; no less than 116 µM against Candida parapsilosis; 16 µM (≈ 27.5 µg/mL) in assay [7]; 32 µM (≈ 55 µg/mL) in assay [14]. Further, the MIC stood at 32 µM (≈ 55 µg/mL) in [15]; 16 µM (≈ 27.5 µg/mL) in assay [16]; 16 µM (≈ 27.5 µg/mL) in assay [17]; 16 µM (≈ 27.5 µg/mL) in [18]; 8 µM (≈ 13.7 µg/mL) in assay [19]; 16 µM (≈ 27.5 µg/mL) with Escherichia coli UB1005. Besides, the minimal inhibitory concentration (MIC) in [20] is 16 µM (≈ 27.5 µg/mL); in assay [21], 16 µM (≈ 27.5 µg/mL); in the assay on Escherichia coli K-12 it was no less than 40 µM; in assay [22] it was 4 µM (≈ 6.87 µg/mL); in assay [3], 16 µM (≈ 27.5 µg/mL); in assay [23] it was no less than 32 µM. The compound further registered an MIC in assay [24] of 8 µM (≈ 13.7 µg/mL).

On to `CC[C@H](C)[C@H](NC(=O)[C@H](C)NC(=O)[C@H](CO)NC(=O)[C@H](CC(C)C)NC(=O)[C@@H](NC(=O)[C@H](CCCN=C(N)N)NC(=O)CNC(=O)[C@@H](NC(=O)[C@H](CC(C)C)NC(=O)[C@@H]1CCCN1C(=O)[C@H](CC(C)C)NC(=O)[C@@H](N)Cc1ccccc1)[C@@H](C)CC)C(C)C)C(=O)N[C@@H](CC(C)C)C(N)=O` [FLPLIGRVLSAIL], for which the MIC against Staphylococcus capitis 1 is 5 µM (≈ 7.05 µg/mL); against Bacillus megaterium Bm11, 2.5 µM (≈ 3.53 µg/mL); in assay [1], 2.5 µM (≈ 3.53 µg/mL); in assay [2], 20 µM (≈ 28.2 µg/mL); in assay [3], greater than 40 µM; in assay [4] it was 2.5 µM (≈ 3.53 µg/mL).

In turn, `CC[C@H](C)[C@H](N)C(=O)N[C@@H](CC(C)C)C(=O)N1CCC[C@H]1C(=O)N[C@@H](Cc1c[nH]c2ccccc12)C(=O)N[C@@H](CCCCN)C(=O)N[C@@H](Cc1c[nH]c2ccccc12)C(=O)N[C@@H](CCCCN)C(=O)N[C@@H](Cc1ccccc1)C(=O)N[C@@H](Cc1ccccc1)C(=O)N1CCC[C@H]1C(=O)N[C@@H](Cc1c[nH]c2ccccc12)C(=O)N[C@@H](CCCN=C(N)N)C(=O)N[C@@H](CCCN=C(N)N)C(N)=O` [ILPWKWKFFPWRR] registered an MIC with Escherichia coli JM109 of 1 µM (≈ 1.86 µg/mL).

For `CC[C@H](C)[C@H](NC(=O)[C@H](C)NC(=O)[C@H](CC(C)C)NC(=O)[C@H](CS)NC(=O)[C@H](Cc1cnc[nH]1)NC(=O)[C@H](C)NC(=O)[C@H](C)NC(=O)[C@H](CS)NC(=O)[C@@H](N)CC(C)C)C(=O)NCC(=O)N[C@@H](CCCN=C(N)N)C(=O)N[C@@H](CCCN=C(N)N)C(N)=O` [LCAAHCLAIGRR], the MIC against Staphylococcus aureus was greater than 49.9 µM; in assay [25], 14 µM; in the assay with Escherichia coli JM109, no less than 37.4 µM.

For `CC(C)C[C@H](NC(=O)CNC(=O)CNC(=O)CNC(=O)[C@H](Cc1ccccc1)NC(=O)[C@H](Cc1c[nH]c2ccccc12)NC(=O)[C@H](CCCN=C(N)N)NC(=O)[C@H](Cc1c[nH]c2ccccc12)NC(=O)[C@H](CCCN=C(N)N)NC(=O)[C@H](Cc1c[nH]c2ccccc12)NC(=O)[C@@H](N)CCCN=C(N)N)C(=O)N[C@@H](CCCCN)C(=O)N[C@@H](CCCN=C(N)N)C(=O)N[C@@H](Cc1ccccc1)C(=O)N[C@@H](CC(C)C)C(=O)N[C@@H](CCCCN)C(=O)N[C@@H](Cc1c[nH]c2ccccc12)C(=O)N[C@@H](Cc1ccccc1)C(=O)N[C@@H](CCCCN)C(=O)N[C@@H](CCCN=C(N)N)C(=O)N[C@@H](Cc1ccccc1)C(N)=O` [RWRWRWFGGGLKRFLKWFKRF], the MIC worked out at 2.74 µM (≈ 8 µg/mL) in [26]; 5.49 µM (≈ 16 µg/mL) in assay [27]; 5.49 µM (≈ 16 µg/mL) in assay [28]; 22 µM (≈ 64 µg/mL) in [29]; 11 µM (≈ 32 µg/mL) in assay [30]; 2.74 µM (≈ 8 µg/mL) against Streptococcus mutans.

For `CC[C@H](C)[C@H](NC(=O)[C@H](CCCCN)NC(=O)[C@H](CCCN=C(N)N)NC(=O)[C@H](Cc1c[nH]c2ccccc12)NC(=O)[C@H](Cc1c[nH]c2ccccc12)NC(=O)[C@@H](N)CCCN=C(N)N)C(=O)N[C@@H](Cc1c[nH]c2ccccc12)C(=O)N[C@@H](CCCCN)C(=O)N[C@@H](Cc1c[nH]c2ccccc12)C(N)=O` [RWWRKIWKW], the minimum inhibitory concentration (MIC) in assay [7] came out at 2 µM (≈ 2.89 µg/mL); in assay [8], 2.83 µM (≈ 4.08 µg/mL); in assay [9] it was 8 µM (≈ 11.6 µg/mL); in [10], 8 µM (≈ 11.6 µg/mL).
